Broadly, the inhibition is the drop in the measured response relative to a control, in per cent.

Consider six compounds from patent US4767776A, “N-1H-tetrazol-5-yl-2-naphthalene carboxamides and their use as antiallergy and antiinflammatory agents” (Warner-Lambert Company, priority 1987, dated 1988).

For one assay, the system named is human basophils. In words: Histamine release from human basophils (HHB). Particulars: anti-IgE stimulus, at highest dose tested, column head: tested at 33 μM, read-out: % Inhibition of Histamine Release with Anti-IgE Stimulus (at highest dose tested). It counts as cell-based. Here is the method: HISTAMINE RELEASE FROM HUMAN BASOPHILS
The blood samples are placed briefly on a rotary mixer. All glassware contacting the blood is siliconized. The blood is aliquoted into three plastic 50 ml centrifuge tubes and the volume is noted. Hespan (hydroxy ethyl starch), 0.5 ml per 1.0 ml of blood, is added. The tubes are inverted several times to mix and are left undisturbed at room temperature until a sharp separation is observed between the settled red cells and the leukocyte and platelet-rich plasma. This usually occurs within 35-45 minutes.
The plasma fraction is pipetted off and placed into two clean plastic 50 ml centrifuge tubes. […] The platelets remain in the plasma and are discarded. The pelleted leukocytes are shaken gently to disrupt the cell button and washed twice as described:
Wash 1. Five ml of HA buffer with 0.005M EDTA is added to the dispersed cells in each tube and gently vortexed. 25 ml of buffer is then added and gently vortexed. The samples are again centrifuged as described earlier. The supernatant is poured off, and the cell button in each tube is gently dispersed.
Wash 2. Five ml of HA buffer with EDTA is added to each tube to resuspend the cells. Leukocytes are then pooled into one tube and the volume is brought up to 40 ml with HA buffer with EDTA and gently vortexed. […] The supernatant fluid is discarded and the cell button is dispersed. Sixteen ml of HACM buffer is added to the washed cells and gently vortexed. A sample is prepared for Hematology, where a total white blood cell and platelet count is done using a Coulter Counter.
Aliquots (0.1 ml) of cells are added to assay tubes containing 0.4 ml of either 6% perchloric acid (for total histamine content), vehicle control (for spontaneous release), or drug. The tubes are incubated at room temperature for 8 minutes, and then placed in a 37° water bath for two more minutes. Buffer or challenge agents (at 37°) are added to the tube and they are incubated for an additional 45 minutes at 37°. The tubes are then spun at 2000 RPM (1200 g) for three minutes to pellet the cells and the supernatants are poured into assay cups.
If the compound is in solution, distilled water is used to bring it up to 100 ml total volume. If the drug is not in solution, 0.2 ml 1N NaOH (or HCl) is added, and then distilled water is added to yield 100 ml total solution. Five ml of the stock solution is diluted (1:2) with 5 ml of two times concentrated HACM (Hepes Albumin Calcium Magnesium) buffer to yield the stock working concentration of 150 μM. […] Further dilutions are made with HACM buffer for 33, 10, 3.3, 1.0 μM, etc.
Short ragweed and house dust extracts (Greer Laboratories, Inc.) are supplied as aqueous extracts in stock concentrations of 40,000 and 10,000 protein nitrogen units per milliliter (PNU/ml), respectively. Aqueous solutions of anti-IgE antisera (rabbit-raised antibody) are purchased from Dako via Accurate Chemicals. The tripeptide f-met-leu-phe (fmlp) from Vega Biochemicals is used. The aqueous solutions of ragweed, house dust, and anti-IgE are diluted 1:2 with two times concentrated HACM and then further diluted with HACM to yield final stock concentrations of […] for ragweed and house dust, and a 1:50 dilution for the anti-IgE antisera. […] The pH is adjusted to 7.4. Further dilutions for working solutions are made in HACM buffer. All stock and working solutions are stored at 4°. Working solutions comprise 1/6 of the final volume in the cell reaction, therefore, working solutions of challenge agents are made up six times the required final concentration (i.e., 600 μM f-met-leu-phe yields 100 μM final concentration in the cellular reaction).
Samples are run in triplicate, using either 1.5 ml polypropylene-capped reaction tubes, or 5.0 ml plastic uncapped tubes.
As to `CC(C)Oc1ccc2ccc(C(=O)Nc3nnn[nH]3)c(OC(C)C)c2c1` [Example 27, 1,7-bis(1-Methylethoxy)-N-1H-tetrazol-5-yl-2-naphthalenecarboxamide], the inhibition at 33 µM came to 0%.

The same assay, now with this note: anti-IgE stimulus, tested at 33 μM, read-out: % Inhibition of Histamine Release with Anti-IgE Stimulus.
Consider `COc1ccc2c(OC(C)C)c(C(=O)Nc3nnn[nH]3)ccc2c1` [Example 22, 6-Methoxy-1-(1-methylethoxy)-N-1H-tetrazol-5-yl-2-naphthalenecarboxamide], for which the inhibition at 33 µM came to 71%.

For `CC(C)Oc1c(C(=O)Nc2nnn[nH]2)ccc2ccccc12` [Example 23, 1-(1-Methylethoxy)-N-1H-tetrazol-5-yl-2-naphthalenecarboxamide], the inhibition at 33 µM stood at 16%.

For `COc1ccc2ccc(C(=O)Nc3nn[nH]n3)c(OC)c2c1` [Example 24, 1,7-Dimethoxy-N-1H-tetrazol-5-yl-2-napthalenecarboxamide], the inhibition at 33 µM is 57%.

Regarding `COc1cccc2c(OC(C)C)c(C(=O)Nc3nnn[nH]3)ccc12` [Example 25, 5-Methoxy-1-(1-methylethoxy)-N-1H-tetrazol-5-yl-2-naphthalenecarboxamide], the inhibition at 33 µM worked out at 11%.

Turning to `COc1ccc2ccc(C(=O)Nc3nnn[nH]3)c(OC(C)C)c2c1` [Example 26, 7-Methoxy-1-(1-methylethoxy)-N-1H-tetrazol-5-yl-2-naphthalenecarboxamide], the inhibition at 33 µM worked out at 91%.
